Source: patent US7820839B2, “Taxoid-fatty acid conjugates and pharmaceutical compositions thereof” (The Research Foundation of State University of New York, priority 2003, dated 2010)
pIC50: −log10 of the molar value. Read-outs that look alike come from different tables or passages of the source.

Tests used:
[1] = system: pgp+ human colon tumor xenograft, DLD-1; details: for Days to 600 mm^3 Median / Growth Delay / Toxicity: number of animals who either died or lost greater than 20% body weight: SCID mice; for Days to 600 mm^3 Median / Growth Delay / Toxicity: number of animals who either died or lost greater than 20% body weight / Tumor free mice/Group: DLD-1; for Tumor free mice/Group: tumors less than 600 mm^3 on day 201
Method: (§1) Female severe combined immune deficient, (SCID) mice aged six to eight weeks were obtained from either the in-house breeding facility at Roswell Park Cancer Institute or Taconic (Germantown, N.Y.). All aspects of animal care complied with the Institutional Animal Care and Use Committee guidelines. […] Tumors were initiated by implantation of approximately 50 mg of non-necrotic tumor fragments on the right flank using a 12-guage trocar needle. Chemotherapy was started when the tumor was established as a palpable mass, (approximately 50-100 mm^3 size). Therapy consisted of i.v. injections through the tail vein, given four times, three days apart. Each drug treatment group or drug free vehicle consisted of 4-5 mice per group, untreated controls contained 10 mice per group.
(§2) These were used for comparison purposes. DHA-taxoids and other omega-3 fatty acid-taxoids were prepared as a 30 mg/mL stock solution in equal parts of Tween 80 (polyoxyethylene-sorbitan monooleate; purchased from Sigma Chemical Company) and absolute ethanol. To stablize the formulation of the DHA-taxoids and other omega-3 fatty acid-taxoids, antioxidants, L-ascorbic acid (3.9 mM) and α-tocopherol (2.0 mM), were added. Each stock solution was further diluted before use in 0.9% NaCl (saline) so that the appropriate concentration of each drug could be injected i.v. via the tail vein, in a volume of approximately 0.4 mL for a 20 g mouse. Each drug was administered once a day on […].
(§3) For each animal, the tumor length (1) and width (w), each in mm, were measured using electronic calipers and recorded every 3-4 days. Tumor volume (v), in mm^3, was calculated using the formula: v=0.4(l×w^2). The time in days to the pre-determined target tumor volume of 600 mm^3 was linearly interpolated from a plot of log(volume) versus time. Statistically significant differences in tumor volumes between control and drug-treated mice were determined by the Cox-Mantel test. […] All statistical tests were two-sided.

[2] = system: Madison 109 subcutaneous lung tumor; details: cited from earlier work
[3] = cited from earlier work
[4] = system: human ovarian tumor xenograft (pgp−) A121; assay: In vivo tumor growth assay, A121 xenograft in SCID mice; details: for Tumor free mice/Group: no palpable tumor on day 197; for Tumor free mice/Group / Days to 600 mm^3 Median / Growth Delay / Toxicity: number of animals who either died or lost greater than 20% body weight: A121; for Days to 600 mm^3 Median / Growth Delay / Toxicity: number of animals who either died or lost greater than 20% body weight: SCID mice; for antitumor effect (in words): human ovarian tumor xenograft (pgp−) A121, SCID mice
Method: as §1, §2, §3

[5] = system: human breast cancer cell line MCF7-MDR; details: drug-resistant, MDR phenotype; cited from earlier work
[6] = total dose 240 mg/kg (80 mg/kg/inj) i.v. day 5, 8 and 11
[7] = total dose 240 mg/kg (80 mg/kg/inj) i.v.
[8] = total dose 75 mg/kg (25 mg/kg/inj) i.v. day 5, 8 and 11
[9] = total dose 75 mg/kg (25 mg/kg/inj) i.v.
[10] = total dose 90 mg/kg (30 mg/kg/inj) i.v.
[11] = total dose 150 mg/kg (50 mg/kg/inj) i.v. day 5, 8 and 11
[12] = total dose 150 mg/kg (50 mg/kg/inj) i.v.
[13] = total dose 60 mg/kg (20 mg/kg/inj) i.v.

SMILES: CC/C=C\C/C=C\C/C=C\C/C=C\C/C=C\C/C=C/CCC(=O)O[C@@H](C(=O)O[C@H]1C[C@@]2(O)[C@@H](OC(=O)c3ccccc3)C3[C@](C)(C(=O)[C@H](OC(C)=O)C(=C1C)C2(C)C)[C@@H](O)C[C@H]1OC[C@@]31OC(C)=O)[C@@H](NC(=O)c1ccccc1)c1ccccc1 (some centres unmarked) [DHA-Paclitaxel, reference compound]
- Days to 600 mm^3 Median [1, 6]: 18 days
- Growth Delay [1, 7]: 4 days
- Toxicity: number of animals who either died or lost greater than 20% body weight [1, 7]: 0
- Tumor free mice/Group [1, 7]: 0/5
- duration of sustained regression ([2]; optimum dose of 120 mg/kg, all mice): sixty
- regression of lung tumor xenografts ([2]; optimum dose of 120 mg/kg, mice): complete regression
- lower clearance rate than paclitaxel ([3]; mice): 94 fold
- stability in plasma ([3]; plasma): stable in plasma
- Tumor free mice/Group [4, 7]: 2/5
- Days to 600 mm^3 Median [4, 7]: 197 days
- Growth Delay [4, 7]: 186 days
- Toxicity: number of animals who either died or lost greater than 20% body weight [4, 7]: 0

SMILES: CC/C=C\C/C=C\C/C=C\C/C=C\C/C=C\C/C=C\CCC(=O)O[C@@H](C(=O)O[C@H]1C[C@@]2(O)[C@@H](OC(=O)c3ccccc3)[C@@H]3[C@]4(OC(C)=O)CO[C@@H]4C[C@H](O)[C@@]3(C)C(=O)[C@H](OC(=O)C3CC3)C(=C1C)C2(C)C)[C@H](C=C(C)C)NC(=O)OC(C)(C)C [DHA-SB-T-1214, 2′-Docosahexaenoyl-3′-dephenyl-3′-(2-methyl-1-propenyl)-10-cyclopropanecarbonyldocetaxel]
- survival of mice ([1]; day 201, DLD-1, SCID mice): all mice were alive on day 201
- tumor detected in treated mice ([1]; day 201, DLD-1, SCID mice): no trace of tumor was detected
- antitumor effect (in words) ([1]; drug-resistant human colon tumor xenografts in SCID mice): remarkable antitumor effect
- Days to 600 mm^3 Median [1, 6]: >201 days
- Growth Delay [1, 7]: >187 days
- Toxicity: number of animals who either died or lost greater than 20% body weight [1, 7]: 0
- Tumor free mice/Group [1, 7]: 5/5

SMILES: CC/C=C\C/C=C\C/C=C\C/C=C\C/C=C\C/C=C/CCC(=O)O[C@@H](C(=O)O[C@H]1C[C@@]2(O)[C@@H](OC(=O)c3ccccc3)C3[C@](C)(C(=O)[C@H](OC(=O)CC)C(=C1C)C2(C)C)[C@@H](O)C[C@H]1OC[C@@]31OC(C)=O)[C@H](C=C(C)C)NC(=O)OC(C)(C)C (some centres unmarked) [DHA-SB-T-1213, 2′-Docosahexaenoyl-3′-dephenyl-3′-(2-methyl-1-propenyl)-10-propanoyldocetaxel]
- Days to 600 mm^3 Median [1, 8]: 68 days
- Growth Delay [1, 9]: 54 days
- Tumor free mice/Group [1, 9]: 0/5
- antitumor effect (in words) [4]: excellent results
- Tumor free mice/Group [4, 10]: 4/5
- Days to 600 mm^3 Median [4, 10]: >197 days
- Growth Delay [4, 10]: >186 days

SMILES: CC/C=C\C/C=C\C/C=C\C/C=C\C/C=C\C/C=C\CCC(=O)O[C@@H](C(=O)O[C@@H]1C(C)=C2[C@@H](OC(C)=O)C(=O)[C@@]3(C)[C@H]([C@H](OC(=O)c4ccccc4)[C@@]4(OC(=O)O[C@@H]14)C2(C)C)[C@]1(OC(C)=O)CO[C@@H]1C[C@@H]3O)[C@H](CC(C)C)NC(=O)OC(C)(C)C [DHA-IDN-5109, 2′-Docosahexaenoyl-3′-dephenyl-3′-(2-methylpropyl)-10-acetyldocetaxel-1,14-carbonate]
- Days to 600 mm^3 Median [1, 11]: 14 days
- Growth Delay [1, 12]: 0 days
- Toxicity: number of animals who either died or lost greater than 20% body weight [1, 12]: 0
- Tumor free mice/Group [1, 12]: 0/5

SMILES: CC/C=C\C/C=C\C/C=C\C/C=C\C/C=C\C/C=C/CCC(=O)O[C@@H](C(=O)O[C@H]1C[C@@]2(O)[C@@H](OC(=O)c3ccccc3)C3[C@](C)(C(=O)[C@H](OC(=O)CC)C(=C1C)C2(C)C)[C@@H](O)C[C@H]1OC[C@@]31OC(C)=O)[C@H](CC(C)C)NC(=O)OC(C)(C)C (some centres unmarked) [DHA-SB-T-1103, 2′-Docosahexaenoyl-3′-dephenyl-3′-(2-methylpropyl)-10-propanoyldocetaxel]
- Days to 600 mm^3 Median [1, 8]: 18 days
- Growth Delay [1, 9]: 4 days
- Tumor free mice/Group [1, 9]: 0/5

SMILES: CC/C=C\C/C=C\C/C=C\C/C=C\C/C=C\C/C=C/CCC(=O)O[C@@H](C(=O)O[C@H]1C[C@@]2(O)[C@@H](OC(=O)c3ccccc3)C3[C@](C)(C(=O)[C@H](OC(=O)N(C)C)C(=C1C)C2(C)C)[C@@H](O)C[C@H]1OC[C@@]31OC(C)=O)[C@H](C=C(C)C)NC(=O)OC(C)(C)C (some centres unmarked) [DHA-SB-T-1216]
- antitumor effect (in words) [4]: effective tumor growth delay
- Tumor free mice/Group [4, 10]: 1/5
- Days to 600 mm^3 Median [4, 10]: >197 days
- Growth Delay [4, 10]: >186 days
- Toxicity: number of animals who either died or lost greater than 20% body weight [4, 10]: 4

SMILES: CC/C=C\C/C=C\C/C=C\C/C=C\C/C=C\C/C=C/CCC(=O)O[C@@H](C(=O)O[C@H]1C[C@@]2(O)[C@@H](OC(=O)c3ccccc3)C3[C@](C)(C(=O)[C@H](OC(=O)C4CC4)C(=C1C)C2(C)C)[C@@H](O)C[C@H]1OC[C@@]31OC(C)=O)[C@H](CC(C)C)NC(=O)OC(C)(C)C (some centres unmarked) [DHA-SB-T-1104, 2′-Docosahexaenoyl-3′-dephenyl-3′-(2-methyl-1-propyl)-10-cyclopropanecarbonyldocetaxel]
- Days to 600 mm^3 Median [1, 6]: 18 days
- Growth Delay [1, 7]: 4 days
- Toxicity: number of animals who either died or lost greater than 20% body weight [1, 7]: 0
- Tumor free mice/Group [1, 7]: 0/5
- antitumor effect (in words) [4]: effective tumor growth delay
- Tumor free mice/Group [4, 7]: 0/5
- Days to 600 mm^3 Median [4, 7]: 126 days
- Growth Delay [4, 7]: 115 days
- Toxicity: number of animals who either died or lost greater than 20% body weight [4, 7]: 0

SMILES: CC(=O)O[C@H]1C(=O)[C@@]2(C)[C@H]([C@H](OC(=O)c3ccccc3)[C@]3(O)C[C@H](OC(=O)[C@H](O)[C@@H](NC(=O)c4ccccc4)c4ccccc4)C(C)=C1C3(C)C)[C@]1(OC(C)=O)CO[C@@H]1C[C@@H]2O [Paclitaxel, reference compound]
- Days to 600 mm^3 Median ([1]; total dose 60 mg/kg (20 mg/kg/inj) i.v. day 5, 8 and 11): 22 days
- Growth Delay [1, 13]: 8 days
- Toxicity: number of animals who either died or lost greater than 20% body weight [1, 13]: 0
- Tumor free mice/Group [1, 13]: 0/3
- pIC50 [5]: 6.10 to 6.52
- regression of the tumors ([2]; optimum dose of 20 mg/kg, mice): neither complete nor partial regression
- Tumor free mice/Group [4, 13]: 0/5
- Days to 600 mm^3 Median [4, 13]: 94 days
- Growth Delay [4, 13]: 83 days
- Toxicity: number of animals who either died or lost greater than 20% body weight [4, 13]: 0

SMILES: CC/C=C\C/C=C\C/C=C\C/C=C\C/C=C\C/C=C/CCC(=O)O[C@@H](C(=O)O[C@H]1C[C@@]2(O)[C@@H](OC(=O)c3ccccc3)C3[C@]4(OC(C)=O)COC4C[C@H](O)[C@@]3(C)C(=O)[C@H](O)C(=C1C)C2(C)C)[C@@H](NC(=O)OC(C)(C)C)c1ccccc1 (some centres unmarked) [DHA-Docetaxel, reference compound]
- Days to 600 mm^3 Median [1, 8]: 31 days
- Growth Delay [1, 9]: 17 days
- Toxicity: number of animals who either died or lost greater than 20% body weight [1, 9]: 0
- Days to 600 mm^3 Median [1, 11]: 48 days
- Growth Delay [1, 12]: 34 days
- Toxicity: number of animals who either died or lost greater than 20% body weight [1, 12]: 0
- Tumor free mice/Group [1, 9]: 0/4
- Tumor free mice/Group [1, 12]: 0/4
